Results taken from ChEMBL document CHEMBL1157485, “Studies on the structure-activity relationship of bicifadine analogs as monoamine transporter inhibitors” (Bioorg Med Chem Lett, 2008).
Calls of active or inactive are those of the source. The rule behind the calls is not given here.

Legend:
Transporter = Transporter (Rattus norvegicus, UniProt Q63380); experiment: Inhibition of norepinephrine uptake at NET in rat brain synaptosome; type: tissue-based
[1] = biological target: Sodium-dependent serotonin transporter (Rattus norvegicus, UniProt P31652); experiment: Inhibition of serotonin uptake at SERT in rat brain synaptosome; type: tissue-based
Chain of Sodium-dependent serotonin transporter (P31652 whole entry): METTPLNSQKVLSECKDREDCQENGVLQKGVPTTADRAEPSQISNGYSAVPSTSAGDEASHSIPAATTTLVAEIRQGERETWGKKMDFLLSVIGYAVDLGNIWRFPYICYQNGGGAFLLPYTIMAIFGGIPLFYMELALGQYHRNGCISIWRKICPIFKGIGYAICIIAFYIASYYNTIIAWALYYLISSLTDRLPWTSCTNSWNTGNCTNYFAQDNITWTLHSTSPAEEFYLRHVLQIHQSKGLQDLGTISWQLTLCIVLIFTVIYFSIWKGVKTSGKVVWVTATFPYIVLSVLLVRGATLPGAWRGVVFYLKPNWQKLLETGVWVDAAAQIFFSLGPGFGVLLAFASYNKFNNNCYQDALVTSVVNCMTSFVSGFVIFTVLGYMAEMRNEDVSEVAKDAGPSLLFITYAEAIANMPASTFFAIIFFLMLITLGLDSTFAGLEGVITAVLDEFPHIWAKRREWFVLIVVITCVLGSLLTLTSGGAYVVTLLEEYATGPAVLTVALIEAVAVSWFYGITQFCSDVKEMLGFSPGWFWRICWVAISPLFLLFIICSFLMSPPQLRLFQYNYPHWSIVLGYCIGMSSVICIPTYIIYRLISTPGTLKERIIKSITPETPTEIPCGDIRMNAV

[2] = biological target: Sodium-dependent dopamine transporter (Rattus norvegicus, UniProt P23977); experiment: Inhibition of dopamine uptake at cloned DAT in rat brain synaptosome; type: tissue-based
Chain of Sodium-dependent dopamine transporter (P23977 whole entry): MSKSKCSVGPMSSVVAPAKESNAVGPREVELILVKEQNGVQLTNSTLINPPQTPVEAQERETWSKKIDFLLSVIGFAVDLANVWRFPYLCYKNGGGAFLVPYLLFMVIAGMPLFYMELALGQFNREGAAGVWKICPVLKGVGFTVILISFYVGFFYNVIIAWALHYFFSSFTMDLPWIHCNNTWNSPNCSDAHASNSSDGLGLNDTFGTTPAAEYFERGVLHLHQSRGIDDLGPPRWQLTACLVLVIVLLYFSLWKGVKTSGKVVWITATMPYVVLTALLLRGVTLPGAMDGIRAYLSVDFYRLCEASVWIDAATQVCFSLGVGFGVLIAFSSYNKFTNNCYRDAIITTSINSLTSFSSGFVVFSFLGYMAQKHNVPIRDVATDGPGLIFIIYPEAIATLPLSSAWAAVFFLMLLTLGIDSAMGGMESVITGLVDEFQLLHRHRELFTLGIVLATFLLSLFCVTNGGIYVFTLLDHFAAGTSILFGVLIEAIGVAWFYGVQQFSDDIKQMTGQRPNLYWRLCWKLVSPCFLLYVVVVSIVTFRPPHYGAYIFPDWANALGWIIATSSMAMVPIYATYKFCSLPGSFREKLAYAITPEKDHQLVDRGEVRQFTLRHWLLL

[3] = Apparent permeability across human CaCo2 cells; type: ADME, cell-based; conditions: Caco-2
[4] = Efflux ratio in human CaCo2 cells; type: ADME, cell-based; conditions: Caco-2
Mus musculus [5] = experiment: Antinociceptive activity in formalin-treated mouse model of persistent pain assessed as reduction in number of hind paws flinches at 30 mg/kg; type: functional; design: scale not given: the % may be the effect or the level left
Mus musculus [6] = experiment: Antinociceptive activity in formalin-treated mouse model of persistent pain assessed as reduction in licking time at 60 mg/kg; type: functional

Chain of Transporter (Q63380 whole entry): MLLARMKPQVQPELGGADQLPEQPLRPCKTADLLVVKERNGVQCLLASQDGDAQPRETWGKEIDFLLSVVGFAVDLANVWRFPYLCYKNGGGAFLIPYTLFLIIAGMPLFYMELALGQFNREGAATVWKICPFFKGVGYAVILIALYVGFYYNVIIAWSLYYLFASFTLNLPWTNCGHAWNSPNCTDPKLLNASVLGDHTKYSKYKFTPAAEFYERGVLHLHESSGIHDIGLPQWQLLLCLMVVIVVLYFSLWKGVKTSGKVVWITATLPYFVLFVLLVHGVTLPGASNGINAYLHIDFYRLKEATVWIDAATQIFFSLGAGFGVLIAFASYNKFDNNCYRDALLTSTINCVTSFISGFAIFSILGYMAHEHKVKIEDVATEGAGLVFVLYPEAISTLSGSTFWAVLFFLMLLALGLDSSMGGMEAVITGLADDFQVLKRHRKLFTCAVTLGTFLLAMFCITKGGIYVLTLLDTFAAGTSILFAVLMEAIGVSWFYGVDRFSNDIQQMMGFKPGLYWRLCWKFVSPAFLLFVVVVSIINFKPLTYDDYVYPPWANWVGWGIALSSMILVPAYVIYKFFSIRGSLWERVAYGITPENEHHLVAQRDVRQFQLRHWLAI

| Compound | IC50 (Transporter) | IC50 [1] | IC50 [2] | Papp [3] | efflux ratio [4] | Activity (Mus musculus [5]) | Activity (Mus musculus [6]) |
| --- | --- | --- | --- | --- | --- | --- | --- |
| CN1CC2CC2(c2cccs2)C1 (stereo not given) | 1600 nM | 6300 nM | > 10 µM | – | – | – | – |
| Clc1ccc([C@]23CNC[C@H]2C3)s1 | 77 nM | 81 nM | 1.5 µM | – | – | – | – |
| Clc1ccc([C@@]23CNC[C@@H]2[C@H]3c2ccccc2)cc1Cl (relative stereo) | 34 nM | 350 nM | 0.36 µM | – | – | – | – |
| C[C@@H]1NC[C@@]2(c3cccs3)C[C@@H]12 (relative stereo) | 560 nM | 6000 nM | 9.5 µM | – | – | – | – |
| FC(F)(F)c1ccc(C23CNCC2C3)s1 (stereo not given) | 3100 nM | 190 nM | > 10 µM | – | – | – | – |
| Brc1ccc(C23CNCC2C3)s1 (stereo not given) | 190 nM | 140 nM | 2.4 µM | – | – | – | – |
| c1cc2c(cc1[C@@]13CNC[C@@H]1C3)CCC2 | 2000 nM | 97 nM | > 10 µM | – | – | – | – |
| c1csc(C23CNCC2C3)c1 (stereo not given) | 130 nM | 4500 nM | 7.5 µM | – | – | – | – |
| Cc1csc(C23CNCC2C3)c1 (stereo not given) | 6800 nM | > 10000 nM | > 10 µM | – | – | – | – |
| c1ccc2oc(C34CNCC3C4)cc2c1 (stereo not given) | 48 nM | 140 nM | 0.33 µM | – | – | – | – |
| Brc1ccc([C@@]23CNC[C@@H]2C3)s1 | 340 nM | 380 nM | 8.2 µM | – | – | – | – |
| C[C@H]1[C@H]2CNC[C@]21c1ccc(Cl)c(Cl)c1 (relative stereo) | 500 nM | 200 nM | 0.5 µM | – | – | – | – |
| Fc1ccc([C@]23CNC[C@H]2C3)s1 | 470 nM | 8100 nM | > 10 µM | – | – | – | – |
| c1ccc([C@@H]2[C@H]3CNC[C@]32c2ccccc2)cc1 | 120 nM | 240 nM | 8.7 µM | – | – | – | – |
| c1ccc(C23CNCC2C3)cc1 (stereo not given) | 350 nM | 5200 nM | 2.7 µM | – | – | – | – |
| c1ccc2sc(C34CNCC3C4)cc2c1 (stereo not given) | 53 nM | 71 nM | 0.18 µM | – | – | – | – |
| Clc1ccc(C23CNCC2C3)s1 (stereo not given) | 130 nM | 190 nM | 3.3 µM | – | – | – | – |
| C[C@H]1NC[C@@]2(c3cccs3)C[C@@H]12 (relative stereo) | 320 nM | 7600 nM | 3.4 µM | – | – | – | – |
| FC12CNCC1(c1ccccc1)C2 (stereo not given) | 1800 nM | 2900 nM | > 10 µM | – | – | – | – |

| Compound | IC50 (Transporter) | IC50 [1] | IC50 [2] | Papp [3] | efflux ratio [4] | Activity (Mus musculus [5]) | Activity (Mus musculus [6]) |
| --- | --- | --- | --- | --- | --- | --- | --- |
| C[C@H]1NC[C@@H]2C[C@@]21c1cccs1 (relative stereo) | 150 nM | 5800 nM | 8.9 µM | – | – | – | – |
| c1cnc2ccc(C34CNCC3C4)cc2c1 (stereo not given) | 1400 nM | 640 nM | 3.9 µM | – | – | – | – |
| c1ccc(-c2ccc(C34CNCC3C4)cc2)cc1 (stereo not given) | 360 nM | 160 nM | 2.3 µM | – | – | – | – |
| c1cc2c(cc1[C@@]13CNC[C@@H]1C3)CCO2 | 4800 nM | 610 nM | 9.1 µM | – | – | – | – |
| c1ccc2c(C34CNCC3C4)csc2c1 (stereo not given) | 220 nM | 73 nM | 0.78 µM | – | – | – | – |
| c1cc2c(cc1C13CNCC1C3)OCO2 (stereo not given) | 3500 nM | 1500 nM | > 10 µM | – | – | – | – |
| Fc1ccc2sc([C@]34CNC[C@H]3C4)cc2c1 | 67 nM | 33 nM | 0.42 µM | – | – | – | – |
| Clc1ccc([C@@]23CNC[C@@H]2C3)s1 | 590 nM | 1300 nM | 2.5 µM | – | – | – | – |
| Clc1cc(Cl)c(C23CNCC2C3)s1 (stereo not given) | 5300 nM | 4200 nM | > 10 µM | – | – | – | – |
| c1csc([C@]23CNC[C@H]2C3)c1 | 92 nM | 1900 nM | 2.4 µM | 17.6 ×10⁻⁶ cm/s | 0.7 | 40% | – |
| CCOc1ccccc1O[C@@H](c1ccccc1)[C@@H]1CNCCO1 | – | – | – | – | – | – | inactive |
| c1ccc2cc(C34CNCC3C4)ccc2c1 (stereo not given) | 36 nM | 50 nM | 0.19 µM | – | – | – | – |
| c1csc([C@@]23CNC[C@@H]2C3)c1 | 150 nM | 4900 nM | 6.2 µM | – | – | – | – |
| c1cc([C@@]23CNC[C@@H]2C3)cs1 | 300 nM | 6800 nM | 8.2 µM | – | – | – | – |
| CC1(C)C2CNCC21c1ccccc1 (stereo not given) | 7200 nM | 1800 nM | > 10 µM | – | – | – | – |
| C[C@@H]1[C@H]2CNC[C@@]12c1ccc(Cl)c(Cl)c1 (relative stereo) | 29 nM | 190 nM | 0.4 µM | – | – | – | – |
| O=C1NCC2CC12c1cccs1 (stereo not given) | > 10000 nM | > 10000 nM | > 10 µM | – | – | – | – |
| Cc1ccc(C23CNCC2C3)cc1 (stereo not given) [BICIFADINE] | – | – | – | – | – | – | 89% |
